Literature values, collected in US20050281872A1, “Enhanced compliance antiviral medicaments and methods of manufacture and use” (priority 2004, published 2005).

Assays:
[1] = taking antacids containing magnesium, aluminum, and simethicone
[2] = ribavirin powder
[3] = patients receiving ribavirin antiviral therapy

Molecule | decrease in available ribavirin [1] [%] | dissolution time in water [2] | effectiveness in treating hepatitis C (hepatitis C virus (HCV); ribavirin alone, without interferon) | solubility in alcohol (alcohol) | solubility in water (water) | patients requiring a reduction in dose or discontinuation of therapy because of side effects [3] | patients who responded positively (hepatitis C virus (HCV); high dose of interferon for six months)
NC(=O)c1ncn([C@@H]2O[C@H](CO)[C@@H](O)[C@H]2O)n1 [ribavirin] | 14 | almost instantaneous | not effective | only sparingly soluble | freely soluble | up to 20% | 
interferon |  |  |  |  |  |  | nearly half
